This passage reports EC50, IC50 and outcome results from PubChem BioAssay AID179 (DTP/NCI, 2004).

The subject of this assay is CEM cells HIV-1 protection, formazan growth assay. The assay is described as follows: NCI AIDS Antiviral Assay. The conditions noted are these: for IC50: measured here: growth of uninfected CEM cells. The gist of the method: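 Steps: treat uninfected and HIV-1-infected human CEM cells at five drug levels; quantify growth by soluble formazan; retest any compound reaching 50% protection; classify actives from the retest.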

Usually EC50 stands for the concentration at which the effect is half-maximal. In general, IC50 refers to the concentration at which inhibition is half-maximal.

“And” between values parts separate entries of the source, which are not always exact repeats. Identical values can stand only once. The source made the active and inactive calls.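 How the source made its calls: active means compounds giving half or more protection of infected cells from virus-caused growth loss, again on retest; inactive means the rest.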 Where a SMILES comes first, the peptide text is derived from it. The star is where a group is joined. Cbz = O=C(OCc1ccccc1)*; Boc = CC(C)(C)OC(=O)*; OSu = O=C1CCC(=O)N1O*; Bn = c1ccc(C*)cc1

`Cc1cn(C2CC(OC(c3ccccc3)(c3ccccc3)c3ccccc3)C(COC(c3ccccc3)(c3ccccc3)c3ccccc3)O2)c(=O)[nH]c1=O` (stereo not drawn): the EC50 was > 200 µM and the IC50 is > 200 µM.
In the case of `Nc1nc(Cl)cc(NCC2(CO)CCC2)n1`, the EC50 was > 200 µM and the IC50 worked out at 191 µM.
In the case of `C[Si](C)(C)O[C@@H]1CCCC1N` (stereo partly drawn), the result was inactive.
On to `O=C(CCN1CCCCC1CO)Nc1ccc2c(c1)C(=O)c1ccc(NC(=O)CCN3CCCCC3CO)cc1C2=O` (stereo not drawn), for which the EC50 is > 200 µM and the IC50 turned out to be 3.16 µM.
As to `CCOC(=O)/C=C1/SC(N2CCCCC2)C(=O)N1CC` (stereo not drawn), the EC50 is > 166 µM and the half-inhibitory concentration (IC50) was > 166 µM.
For the compound `CCCCC(C(=O)C(=O)Nc1ccc(C)cc1C)C(=O)C(C)C` (stereo not drawn), the EC50 is > 794 µM and the IC50 was > 794 µM.
As to `Cc1ccc(/C=C2/N=C(N/N=C\C(O)C(O)C(O)C(O)CO)NC2=O)cc1` (stereo not drawn), the EC50 was > 200 µM; the IC50 was 123 µM and > 200 µM and 132 µM.
With `Cc1cc2nncn2c2nnnn12`, the EC50 is > 200 µM and the IC50 was > 200 µM.
`CCOC(=O)C1(C/C=C\CBr)CCCCCCC1=O` (stereo not drawn): the EC50 is > 200 µM and the IC50 stood at 16.2 µM.
As to `COc1cc2ccc(CC(N)=O)cc2cc1OC`, the outcome was inactive.
With `COC1/C=C\OC2(C)Oc3c(C)c(O)c4c(O)c(c(C=Nc5ccccc5C)c(O)c4c3C2=O)NC(=O)/C(C)=C\C=C/C(C)C(O)C(C)C(O)C(C)C(OC(C)=O)C1C` (stereo not drawn), the EC50 is > 200 µM and the IC50 worked out at 29.5 µM.
Taken in the same sequence, the figures for `Clc1ccc(COC(Cn2ccnc2)c2ccc(Cl)cc2Cl)c(Cl)c1` (stereo not drawn) were > 200 µM and 14.1 µM.
For the compound `CN1CC(O)C(C(=O)NC23CC4CC(CC(C4)C2)C3)C1` (stereo not drawn), the EC50 is > 324 µM and the IC50 was determined as 234 µM.
Turning to `COc1ccc(-c2coc3c(OC)c(OC)c(OC)c(OC)c3c2=O)cc1`, the EC50 was > 200 µM and the 50% inhibitory concentration (IC50) is 44.7 µM.
For the compound `CCOc1ccc(Nc2nc(C)c(C(=O)/C=C/c3ccc(Cl)cc3Cl)s2)cc1`, the EC50 is > 22.9 µM and the concentration for half-maximal inhibition (IC50) turned out to be 20 µM.
As for `CCOC(=O)c1nc2ccc(C(F)(F)F)cc2nc1NCc1cc(OC)c(OC)c(OC)c1`, the EC50 was > 126 µM and the IC50 is > 126 µM.
On to `CCOC(=O)C1Cc2c(ccc(OC)c2OC)C(=O)C1N` (stereo not drawn), for which the outcome was inactive.
On to `N#C/C(=C/NC(=S)NCc1ccccc1)C(N)=O`, for which the EC50 was > 200 µM and the half-maximal inhibitory concentration (IC50) is > 200 µM.
As for `S=C1NC(c2ccccc2)Nc2ccccc21` (stereo not drawn), the EC50 was > 107 µM and the IC50 was > 107 µM.
In the case of `CC12CCC(CC1(Cl)Cl)C2` (stereo not drawn), the EC50 was > 200 µM and the half-inhibitory concentration (IC50) was > 200 µM.
Turning to `N=C(N)N1CCc2ccccc2C1`, the EC50 is > 200 µM and the IC50 is > 200 µM.
Regarding `N#CC(C#N)=C/C=C/c1c(Cl)cccc1Cl`, the EC50 was > 200 µM and the IC50 amounted to 2.57 µM.
Turning to `CCN(CC)C(=O)CCn1ccc(=O)[nH]c1=O`, the EC50 was > 1050 µM and the IC50 is > 1050 µM.
On to `Cc1cc2c(c(C=Nc3ccc(N(C)C)cc3)c1)OC1(C=C2)Oc2ccccc2C(=O)N1C` (stereo not drawn), for which the EC50 is > 41.7 µM and the half-maximal inhibitory concentration (IC50) worked out at 13.2 µM.
The like results for `CC#CCCC1(CC)CCCN(C(=O)OC(C)C)C1OCC` (stereo not drawn) were, in that order, > 32.4 µM and > 32.4 µM.
For the compound `Cc1c2oc(=O)cc(-c3ccccc3)c2cc2c(=O)ccoc12`, the EC50 is > 22.4 µM and the half-maximal inhibitory concentration (IC50) was > 22.4 µM.
Consider `Clc1ccc2noc(-c3ccccc3)c2c1`, for which the EC50 is > 22.9 µM and the IC50 is > 22.9 µM.
On to `NNc1nnc(-c2nnc(NN)o2)o1`, for which the EC50 was > 200 µM and the half-maximal inhibitory concentration (IC50) is > 200 µM.
For `CC1(C)OCC2OC3([C@H](O)CCO)OC(C)(C)OC3C2O1` (stereo partly drawn), the EC50 was > 200 µM and the half-inhibitory concentration (IC50) is > 200 µM.
`COc1c2c3c4c(c(OC)c(=O)c5c(O)c(Br)c(OC)c(c6c(OC)c(Br)c(O)c(c1=O)c36)c54)C(C(C)=O)=C(C)C2`: the EC50 was > 13.8 µM and the IC50 was determined as 1.45 µM.
Take `O=[N+]([O-])c1ccccc1C=NC12CC3CC(CC(C3)C1)C2`: the EC50 was > 115 µM and the IC50 is > 115 µM.
`Cc1ccsc1C(=S)Nc1ccc(Cl)c(/C=N/OC(C)(C)C)c1`: the EC50 was 0.141 µM and the IC50 stood at 14.1 µM.
With `CCCN=c1ssc(=O)n1CCC`, the EC50 is > 200 µM and the IC50 turned out to be 11.2 µM.
As to `COc1cccc(CCNC(=O)CC#N)c1`, the outcome was inactive.
For the compound `NC(=O)N/N=C(\Cc1nc2ccc(C(=O)c3ccccc3)cc2[nH]c1=O)C(=O)Nc1ccc(Br)cc1`, the result was inactive.
As to `CCO[C@H]1N(C2CC(N=[N+]=[N-])C(CO)O2)C(=O)NC(=O)[C@]1(C)Cl` (stereo partly drawn), the EC50 was > 200 µM and the IC50 is > 200 µM.
As for `Cc1cc(C)c(C(=O)c2c(C)ccc(C)c2C(=O)O)c(C)c1`, the EC50 is > 200 µM and the IC50 is > 200 µM.
On to `CC1C2CC3(c4ccccc4)CC(/C2=N\O)/C(=N/O)C1/C3=C\O` (stereo not drawn), for which the EC50 is > 200 µM and the IC50 was > 200 µM.
Regarding `COc1ccc(CCc2ncc[nH]2)cc1`, the EC50 was > 708 µM and the concentration for half-maximal inhibition (IC50) is > 708 µM.
In the case of `Cc1ccc(N2C(=O)/C(=C3\Sc4c(nc(C)n(C)c4=O)N3c3ccccc3)SC2=S)cc1`, the EC50 was > 3.02 µM and the half-inhibitory concentration (IC50) is > 3.02 µM.
For `S=C(NC1CCCCC1)SSSSC(=S)NC1CCCCC1`, the EC50 was > 91.2 µM and the IC50 came out at 33.1 µM.
The like results for `CC1(CO)COC(C)(C)OC1` were, in that order, > 1550 µM and 1410 µM.
For the compound `CC(C)(C)OC(=O)NC(Cc1ccc(OCc2ccccc2)cc1)C(=O)NC(CCCCNC(=O)OCc1ccccc1)C(=O)NC(CCCCNC(=O)OCc1ccccc1)C(=O)ON1C(=O)CCC1=O` (stereo not drawn) (Boc-Tyr(Bn)-Lys(Cbz)-Lys(Cbz)-OSu; configuration not given here), the EC50 is > 100 µM and the concentration for half-maximal inhibition (IC50) worked out at 46.8 µM.
For the compound `CCOC(=O)C(=O)CC(=O)C1=C(c2ccccc2OC)CC(c2cccs2)=CC1=O`, the EC50 was > 200 µM and the IC50 was found to be 32.4 µM.
Taken in the same sequence, the figures for `Cc1cc(C)c2nccc(NCCCN(C)C)c2c1[N+](=O)[O-]` were > 200 µM and 42.7 µM.
As for `CCOC(=O)CN1CCSC1=NC#N`, the result was inactive.
With `COc1cc(C(=O)C/C(CCC(=O)Nc2ccccc2[N+](=O)[O-])=N\NC(=O)CC#N)ccc1O`, the EC50 is > 537 µM and the IC50 was found to be 224 µM.
For `NC1(S(=O)(=O)O)c2ccccc2-c2ccccc21`, the EC50 is > 200 µM and the IC50 amounted to 151 µM.
For `Cc1cccc(/C=N/NC(=S)N2CCCC2)n1`, the EC50 is > 100 µM and the half-maximal inhibitory concentration (IC50) was determined as 0.115 µM.
With `COc1cc2c3cc1Oc1c(OC)c(OC)cc4c1[C@@H](Cc1ccc(O)c(c1)Oc1ccc(cc1)C[C@@H]3N(C)CC2)N(C)CC4`, the outcome was inactive.
Consider `Cc1ccc2c(c1)CSCCO2`, for which the EC50 was > 105 µM and the IC50 came out at 14.8 µM.
`COc1ccc(NC(=O)CSc2nnc(-c3ccc(NC(C)=O)cc3)o2)cc1`: the EC50 is > 33.9 µM and the half-maximal inhibitory concentration (IC50) is 19.1 µM.
In the case of `COc1ccc2c(-c3cc4ccccc4o3)cc(=O)oc2c1`, the outcome was inactive.
Regarding `O=C(O)COc1cccc2ccccc(=O)c12`, the EC50 was > 200 µM and the half-inhibitory concentration (IC50) was > 200 µM.
Regarding `COc1cccc(/C=N/[N-]C(=O)c2ccncc2)c1[O-].[Ni+2].[OH3+]`, the EC50 was > 105 µM and the IC50 is > 105 µM.
For the compound `COc1cc2c(c3c1C=CCO3)C(=O)c1ccccc1C2=O`, the result was inactive.
On the same count and under the same terms, to `CC12OC3(C)OC(=O)C(c4ccccc4)(O1)C3(C)O2` (stereo not drawn) belongs “inactive”.
In the case of `O=C(/C=C\c1ccccc1)Oc1ccc(/C=C2\CCC/C(=C\c3ccc(OC(=O)/C=C\c4ccccc4)cc3)C2=O)cc1`, the EC50 is > 100 µM and the IC50 was > 100 µM.
With `O=C(C(=O)C(=O)C(=O)C1C(=O)c2ccccc2C1=O)C(=O)C(=O)C1C(=O)c2ccccc2C1=O`, the outcome was inactive.
Turning to `O=C(N/S(=N/S(=O)(=O)c1ccc(Br)cc1)C(Cl)(Cl)Cl)c1ccccc1` (stereo not drawn), the EC50 was > 200 µM and the IC50 is > 200 µM.
As to `CC(C)(C)OC(=O)CN1CCNCCNCC1`, the EC50 is > 100 µM and the IC50 is > 100 µM.
For the compound `NCCCC[C@H](NC(=O)[C@H](CS)NC(=O)[C@@H](N)Cc1cnc[nH]1)C(=O)N[C@H](Cc1ccccc1)C(=O)N[C@@H](Cc1c[nH]c2ccccc12)C(=O)N[C@@H](Cc1c[nH]c2ccccc12)C(N)=O`, the EC50 is > 200 µM and the 50% inhibitory concentration (IC50) was > 200 µM.
With `Brc1c(C#CCC2CCCCC2)ccc(C#CCC2CCCCC2)c1Br`, the EC50 is > 100 µM and the IC50 was > 100 µM.
As to `COc1ccc(-c2n[nH]c3c2CCCc2ccccc2-3)cc1`, the EC50 is > 43.7 µM and the IC50 turned out to be 18.2 µM.
For the compound `CCOC(=O)C12CCC(c3c(C)cccc3C)(O1)C(C(=O)OC)=C2C(=O)OC` (stereo not drawn), the EC50 was > 200 µM and the concentration for half-maximal inhibition (IC50) was determined as 107 µM.
As for `O=c1oc2c(ccc3occc32)c(N2CCCCC2)c1-c1ccccc1`, the result was inactive.
Regarding `C[N+]12C=CC=C1C(N1CCCC1)c1scc(-c3ccccc3)c12` (stereo not drawn), the EC50 is > 200 µM and the IC50 turned out to be 17.8 µM.
`CCOC(=O)C1(C(=O)OCC)C[C@H](C)[C@](C)(O)C1`: the EC50 was > 200 µM and the IC50 was > 200 µM.
On to `COc1cc(C2c3cc(O)c(OC)cc3C[C@H]3C(=O)OCC23)ccc1O` (stereo partly drawn), for which the EC50 is > 141 µM and the IC50 is > 141 µM.
As for `O=S(=O)(NCCSSCCNS(=O)(=O)c1cccc2cccnc12)c1cccc2cccnc12`, the EC50 was > 200 µM and the half-inhibitory concentration (IC50) stood at 10.7 µM.
The like results for `Cn1c(=O)c2nc(NCc3ccccc3)sc2n(C)c1=O` were, in that order, > 61.7 µM and > 61.7 µM.
Turning to `COc1ccc(C(c2ccc3cccnc3c2O)c2ccc3cccnc3c2O)cc1`, the outcome was inactive.
Regarding `CCO[C@@H]1C2C=CC(C2)[C@H]1[N+](=O)[O-]` (stereo partly drawn), the EC50 is > 141 µM and the IC50 was > 141 µM.
